{
  "source": "patent US20250313559A1",
  "about": "(Bayer Aktiengesellschaft, priority 2024, published 2025)",
  "key": {"[1]": {"system": "natriuretic peptide levels", "conditions": "ARTS-HF trial, phase 2; cited from earlier work"}, "[2]": {"system": "patients across cardio-kidney-metabolic disease states"}, "[3]": {"system": "patients with HF and LVEF ≥40%", "experiment": "[…]-HF (Example 2) health status: KCCQ-TSS, NYHA class, EQ-5D-5L", "format": "in vivo, human", "conditions": "adjusted for baseline value, geographic region", "quoted_text": "Kansas City Cardiomyopathy Questionnaire (KCCQ) is a standardized patient reported outcomes (PRO) questionnaire which assesses symptoms, physical and social limitations, and quality of life in patients with heart failure (HF). Patients are asked to recall how their HF impacted their life over a 2-week recall period.\nTotal HF events was analyzed using an LWYY model in a similar fashion to the primary endpoint. The percentage of participants with improvement in NYHA class from Baseline to Month 12, was analyzed with a logistic regression model including factors for treatment group and stratification levels. Patients that died or are lost to follow-up at month 12 was considered to had not improved. The absolute change from baseline including measurements up to Month 12 of the TSS of the KCCQ, was analyzed by a repeated measures mixed model including the factors treatment group, baseline, visit, baseline-by-visit interaction, and factors for the stratification levels. The comparison assumed a common treatment effect across Month 6, 9 and 12. […] The composite renal endpoint and all-cause mortality was analyzed using a stratified log-rank test for testing and a stratified Cox proportional hazards model for obtaining a point estimate with 95% confidence interval. […]"}, "[4]": {"system": "patients with HF and LVEF ≥40%", "experiment": "[…]-HF (Example 2) safety: adverse events, hyperkalemia, serum potassium, eGFR, creatinine, vital signs", "format": "in vivo, human", "conditions": "number of patients (%); for Any Serious Adverse Events: treatment-emergent; for Elevated Serum Creatinine >[…] / Elevated Serum Creatinine ≥3.0 mg/dl / Elevated Serum Potassium >6.0 mmol/liter / Elevated Serum Potassium >[…] / Reduced Serum Potassium < […] / Systolic Blood Pressure <100 mm Hg: patients with at least one assessment", "description": "Safety assessments includes adverse events (AEs), serious adverse events (SAEs), vital signs including heart rate and blood pressure assessment. Safety laboratory tests includes blood chemistry, hematology and urinalysis.\nThe following safety procedures and variables have been assessed during the study: • SAEs and AEs leading to discontinuation of treatment with study intervention; • Change in body weight from baseline; • Change in serum potassium from baseline; • Number of participants with hyperkalemia (serum potassium >5.5 mmol/L); • Number of participants with severe hyperkalemia (serum potassium >6.0 mmol/L); • Number of participants with hospitalization for hyperkalemia; • Number of participants permanently discontinuing study intervention due to Hyperkalemia; • Change in vital signs (heart rate, SBP and DBP) from baseline; • Change in renal function measured by eGFR (CKD-EPI formula) change from baseline; • Number of participants with hospitalization for worsening of renal function; • Number of participants permanently discontinuing study intervention due to worsening of renal function; and • Changes in laboratory values from baseline.\nAEs that occurred or worsened after the first dose of study drug and up to 3 days after the last dose of study drug have been considered as treatment-emergent AEs (TEAEs).\nAn overall summary of all AEs and treatment emergent AEs (TEAEs) has been generated by treatment group. The number and percentage of patients with TEAEs, post-treatment AEs occurring more than 3 days after last intake of study intervention, treatment-emergent SAEs, treatment-emergent study intervention-related AEs, treatment-emergent study intervention-related SAEs, TEAEs causing premature and permanent discontinuation of study intervention, treatment-emergent non-serious AEs, TEAEs by maximum intensity, drug-related TEAEs by maximum intensity has been summarized by treatment group using Medical Dictionary for Regulatory Activity (MedDRA) terms grouped by Primary System Organ Class and Preferred Term.\nThe number of patients with treatment-emergent (until 3 days after last study intervention administration) abnormal laboratory values above or below the normal range has been tabulated by the laboratory parameter and treatment group.\nSummary statistics including changes from baseline have been calculated by treatment group and visit for all quantitative laboratory parameters, i.e. for hematology, clinical chemistry and urinalysis. Geometric statistics and ratios to baseline has been presented for urinary albumin-to-creatinine ratio (UACR), creatinine, and NT-proBNP, instead of arithmetic statistics with changes from baseline.\nThe following special safety parameters have been further assessed by displaying the number and percentage of patients with safety events as described below by treatment group, visit, and for any time on treatment (including unscheduled assessments) and until 3 days after last study intervention administration. This has also been performed by stratification factors."}, "[5]": {"system": "participants with chronic kidney disease and Type-2 diabetes", "conditions": "cited from earlier work"}, "[6]": {"conditions": "FINE-HEART pooled safety population, finerenone n = 9,482, treatment-emergent"}, "[7]": {"conditions": "FINE-HEART pooled safety population, n = 9,482"}, "[8]": {"conditions": "FINE-HEART pooled, n = 9,482, investigator reported adverse events"}, "[9]": {"conditions": "No SGLT2i Use, finerenone n = 2,601"}},
  "data": [
    {"smiles": "CCOc1ncc(C)c2c1[C@H](c1ccc(C#N)cc1OC)C(C(N)=O)=C(C)N2", "note": "[finerenone, (4S)-4-(4-cyano-2-methoxyphenyl)-5-ethoxy-2,8-dimethyl-1,4-dihydro-1,6-naphthyridine-3-carboxamide]", "values": [
      {"measurement": "treatment effects on natriuretic peptide levels", "setting": "[1]", "value": "dose dependent"},
      {"measurement": "Any adverse event leading to treatment discontinuation, % of patients", "setting": "[2]; FINE-HEART pooled safety population, finerenone n = 9,482", "value": "(5.4%)"},
      {"measurement": "Any serious adverse event, % of patients", "setting": "[2]; [6]", "value": "(34.6%)"},
      {"measurement": "Any serious adverse event, number of patients", "setting": "[2]; [6]", "value": "3,283"},
      {"measurement": "Acute kidney injury leading to hospitalization, % of patients", "setting": "[2]; [7]", "value": "(1.5%)"},
      {"measurement": "Acute kidney injury leading to hospitalization, number of patients", "setting": "[2]; [7]", "value": 143},
      {"measurement": "Acute kidney injury leading to treatment discontinuation, % of patients", "setting": "[2]; [7]", "value": "(0.2%)"},
      {"measurement": "Acute kidney injury leading to treatment discontinuation, number of patients", "setting": "[2]; [7]", "value": 15},
      {"measurement": "Acute kidney injury, % of patients", "setting": "[2]; [7]", "value": "(3.6%)"},
      {"measurement": "Gynecomastia or breast hyperplasia, % of patients", "setting": "[2]; [7]", "value": "(0.2%)"},
      {"measurement": "Gynecomastia or breast hyperplasia, number of patients", "setting": "[2]; [7]", "value": 16},
      {"measurement": "Systolic blood pressure<100 mmHg, % of patients", "setting": "[2]; [7]", "value": "(11.1%)"},
      {"measurement": "Systolic blood pressure<100 mmHg, number of patients", "setting": "[2]; [7]", "value": "1,040"},
      {"measurement": "Any potassium >6.0 mmol/L, % of patients", "setting": "[2]; FINE-HEART pooled, n = 9,482, central laboratory measurements", "value": "(3.3%)"},
      {"measurement": "Hyperkalemia leading to death, % of patients", "setting": "[2]; [8]", "value": "(0.0%)"},
      {"measurement": "Hyperkalemia leading to death, number of patients", "setting": "[2]; [8]", "value": 0},
      {"measurement": "Hyperkalemia leading to hospitalization, % of patients", "setting": "[2]; [8]", "value": "(0.8%)"},
      {"measurement": "Hyperkalemia leading to hospitalization, number of patients", "setting": "[2]; [8]", "value": 80},
      {"measurement": "Hyperkalemia leading to treatment discontinuation, % of patients", "setting": "[2]; [8]", "value": "(1.3%)"},
      {"measurement": "Hyperkalemia, % of patients", "setting": "[2]; [8]", "value": "(12.8%)"},
      {"measurement": "Hyperkalemia, number of patients", "setting": "[2]; [8]", "value": "1,216"},
      {"measurement": "Change in KCCQ-TSS from baseline to 12 months, difference in mean (95% CI) finerenone vs placebo", "setting": "[3]; bilirubin Tertile 2 0.5-0.6 mg/dL", "value": "0.69 (−0.92 to 2.30)"},
      {"measurement": "Change in KCCQ-TSS from baseline to 12 months, difference in mean (95% CI) finerenone vs placebo", "setting": "[3]; bilirubin Tertile 3 ≥0.7 mg/dL", "value": "3.15 (1.52 to 4.77)"},
      {"measurement": "Any Adverse Events leading to Treatment Discontinuation", "setting": "[4]; [9]", "value": "90 (3.5%)"},
      {"measurement": "Hyperkalemia leading to Treatment Discontinuation", "setting": "[4]; [9]", "value": "12 (0.5%)"},
      {"measurement": "Investigator Reported Hyperkalemia", "setting": "[4]; [9]", "value": "246 (9.5%)"},
      {"measurement": "Investigator Reported Hyperkalemia leading to Hospitalization", "setting": "[4]; [9]", "value": "14 (0.5%)"},
      {"measurement": "Any Serious Adverse Events", "setting": "[4]; [9]", "value": "995 (38.3%)"},
      {"measurement": "Elevated Serum Creatinine >[…]", "setting": "[4]; No SGLT2i Use", "value": "120 (4.8%)"},
      {"measurement": "Elevated Serum Creatinine ≥3.0 mg/dl", "setting": "[4]; No SGLT2i Use", "value": "50 (2.0%)"},
      {"measurement": "Elevated Serum Potassium >6.0 mmol/liter", "setting": "[4]; No SGLT2i Use", "value": "76 (3.0%)"},
      {"measurement": "Elevated Serum Potassium >[…]", "setting": "[4]; No SGLT2i Use", "value": "358 (14.2%)"},
      {"measurement": "Reduced Serum Potassium < […]", "setting": "[4]; No SGLT2i Use", "value": "118 (4.7%)"},
      {"measurement": "Systolic Blood Pressure <100 mm Hg", "setting": "[4]; No SGLT2i Use", "value": "435 (17.2%)"},
      {"measurement": "Any Adverse Events leading to Treatment Discontinuation", "setting": "[4]; SGLT2i Use, finerenone n = 392", "value": "6 (1.5%)"},
      {"measurement": "Hyperkalemia leading to Treatment Discontinuation", "setting": "[4]; SGLT2i Use, finerenone n = 392", "value": "1 (0.3%)"},
      {"measurement": "Investigator Reported Hyperkalemia", "setting": "[4]; SGLT2i Use, finerenone n = 392", "value": "43 (11.0%)"},
      {"measurement": "Investigator Reported Hyperkalemia leading to Hospitalization", "setting": "[4]; SGLT2i Use, finerenone n = 392", "value": "2 (0.5%)"},
      {"measurement": "Any Serious Adverse Events", "setting": "[4]; SGLT2i Use, finerenone n = 392", "value": "162 (41.3%)"},
      {"measurement": "Elevated Serum Creatinine >[…]", "setting": "[4]; SGLT2i Use", "value": "21 (5.5%)"},
      {"measurement": "Elevated Serum Creatinine ≥3.0 mg/dl", "setting": "[4]; SGLT2i Use", "value": "7 (1.8%)"},
      {"measurement": "Elevated Serum Potassium >6.0 mmol/liter", "setting": "[4]; SGLT2i Use", "value": "10 (2.6%)"},
      {"measurement": "Elevated Serum Potassium >[…]", "setting": "[4]; SGLT2i Use", "value": "55 (14.5%)"},
      {"measurement": "Reduced Serum Potassium < […]", "setting": "[4]; SGLT2i Use", "value": "9 (2.4%)"},
      {"measurement": "Systolic Blood Pressure <100 mm Hg", "setting": "[4]; SGLT2i Use", "value": "103 (27.0%)"},
      {"measurement": "cardiovascular events, including heart failure hospitalizations", "setting": "[5]", "value": "reduced"},
      {"measurement": "kidney disease progression", "setting": "[5]", "value": "reduced"}
    ]}
  ]
}
